PubChem BioAssay (NCI)
Where “and” joins values, the source holds several entries; their conditions need not be identical. Equal entries are not always repeated.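 Assay format: 96-well plates, 48-hour exposure. GI50 = concentration required for 50% inhibition of growth. At the TGI there is no net growth.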

Legend:
Assay in all cases: NCI-60 cell line screen, 48 h
EKVX NSCLC = test system: EKVX NSCLC
IGROV1 ovarian = test system: IGROV1 ovarian
NCI-H226 lung = test system: NCI-H226 lung
OVCAR-4 ovarian = test system: OVCAR-4 ovarian
SK-MEL-28 melanoma = test system: SK-MEL-28 melanoma
SNB-19 CNS = test system: SNB-19 CNS
UO-31 renal = test system: UO-31 renal
BT-549 breast = test system: BT-549 breast
HOP-92 NSCLC = test system: HOP-92 NSCLC
SNB-75 CNS = test system: SNB-75 CNS

| Structure (SMILES) | GI50 (EKVX NSCLC) | GI50 (IGROV1 ovarian) | GI50 (NCI-H226 lung) | TGI (NCI-H226 lung) | GI50 (OVCAR-4 ovarian) | GI50 (SK-MEL-28 melanoma) | GI50 (SNB-19 CNS) | GI50 (UO-31 renal) | TGI (UO-31 renal) | GI50 (BT-549 breast) [µM] | TGI (BT-549 breast) [µM] | TGI (EKVX NSCLC) [µM] | GI50 (HOP-92 NSCLC) [µM] | TGI (HOP-92 NSCLC) [µM] | TGI (IGROV1 ovarian) [µM] | TGI (OVCAR-4 ovarian) [µM] | TGI (SK-MEL-28 melanoma) [µM] | TGI (SNB-19 CNS) [µM] | TGI (SNB-75 CNS) [µM] | GI50 (SNB-75 CNS) [µM] |
| --- | --- | --- | --- | --- | --- | --- | --- | --- | --- | --- | --- | --- | --- | --- | --- | --- | --- | --- | --- | --- |
| CC[C@@]1(O)C(=O)OCc2c1cc1n(c2=O)Cc2cc3c(CN(C)C)c(O)ccc3nc2-1 | 0.452 µM and 0.468 µM and 2.16 µM | 0.231 µM and 0.116 µM and 0.392 µM | 0.0153 µM and 0.0964 µM and 0.0626 µM | 1.28 µM [middle of 4 runs] | 0.319 µM and 0.812 µM and 0.571 µM | 0.299 µM and 1.36 µM | < 0.0131 µM and 0.026 µM | 0.0169 µM and 0.118 µM and 0.0299 µM | 0.273 µM and 1.89 µM and 0.607 µM | – | – | – | – | – | – | – | – | – | – | – |
| Clc1ccc(OCc2nnc3sc(SSc4nn5c(COc6ccc(Cl)cc6)nnc5s4)nn23)cc1 | – | – | – | > 100 µM | 46.7 µM | – | – | – | > 100 µM | 48.1 | > 100 | > 100 | 18.2 | > 100 | > 100 | > 100 | > 100 | > 100 | > 100 | – |
| Fc1cc(C2=Nn3c(CNc4ccc(Cl)cc4)nnc3S/C2=C\c2ccc(-c3ccc(Cl)cc3)o2)c(Cl)cc1Cl | – | – | – | > 100 µM | – | – | – | – | > 100 µM | – | > 100 | 67.8 | – | – | > 100 | – | > 100 | > 100 | – | – |
| CC1(CO)C(O)CCC2(C)C1C(O)CC1CC3CC12CCC3(O)CO (stereo unspecified) | – | – | – | 224 µM | – | – | – | – | > 225 µM | – | – | > 225 | – | > 225 | > 225 | > 225 | > 225 | > 225 | > 225 | – |
| OC(c1ccccc1)C1CC2C=CC1C2 (stereo unspecified) | – | – | – | – | – | – | – | – | > 100 µM | – | – | > 100 | – | > 100 | > 100 | > 100 | > 100 | > 100 | > 100 | – |
| CNCCCn1c2c(c3ccc(Cl)cc3c1=O)C(=O)c1cc(OC)cnc1-2 | – | – | 1.35 µM | 3.86 µM | 1.27 µM | 1.62 µM | 0.614 µM | 1.08 µM | 2.64 µM | 0.645 | 2.07 | – | 1.19 | 2.75 | – | 2.93 | 3.15 | 2.26 | 1.78 | 0.263 |
| Fc1ccc(Nc2ncc(-c3cc(F)c(Cl)cc3Cl)s2)cc1Cl | 16.3 µM | 26.2 µM | 7.92 µM | > 100 µM | 26.5 µM | 79.9 µM | > 100 µM | 17.1 µM | 42.1 µM | 20.2 | 45.1 | 31.3 | 1.47 | 13.3 | > 100 | > 100 | > 100 | > 100 | > 100 | 39.3 |
| COc1ccc(/C=C2\C[C@H]3[C@@H]4CC=C5C[C@@H](OC(C)=O)CC[C@]5(C)[C@H]4CC[C@]3(C)C2=O)cc1OC | – | – | – | > 100 µM | – | – | – | – | 35.9 µM | – | > 100 | 66.5 | – | > 100 | > 100 | > 100 | > 100 | > 100 | > 100 | – |
| Clc1ccc(C2CC(c3cccc(Nc4ccncc4)c3)=NN2c2ccccc2)cc1 (stereo unspecified) | 1.58 µM | 1.56 µM | 16.4 µM | 39.5 µM | 1.64 µM | 1.77 µM | 1.71 µM | 1.47 µM | 2.79 µM | 1.72 | 3.38 | 3.12 | 1.4 | 2.82 | 3.04 | 3.17 | 3.24 | 3.18 | 2.79 | 1.37 |
| CC(C)C(=O)Nc1ccc(-c2nc(-c3cccc(OCCN4CCOCC4)c3)c(-c3ccnc(Br)c3)[nH]2)cc1 | 4.01 µM | 3.75 µM | 3.79 µM | 19.8 µM | 4.46 µM | 1.98 µM | 3.46 µM | 2.36 µM | 7.23 µM | 2.82 | 17.3 | > 100 | 2.32 | 7.68 | > 100 | > 100 | 5.02 | > 100 | 4.28 | 0.647 |
| CC(C)(C)CNCCCNc1ccc(Cl)cc1 | – | – | – | 78.7 µM | – | – | – | – | > 100 µM | – | > 100 | > 100 | – | 79.4 | > 100 | > 100 | 44.3 | > 100 | – | – |
| COc1ccc(C2CC(c3ccc(NS(=O)(=O)c4cc([N+](=O)[O-])ccc4C)cc3)=NN2S(=O)(=O)c2cc([N+](=O)[O-])ccc2C)cc1 (stereo unspecified) | – | – | – | > 100 µM | – | – | – | – | > 100 µM | – | > 100 | > 100 | – | > 100 | > 100 | > 100 | > 100 | > 100 | > 100 | – |
